Like-named read-outs stand apart in the source and are kept apart here. Values belong to the molecule of their own block, whether it stands above or below them.
Assays:
Type in all cases: cell-based
[1] = system: CEM cells; test: Nucleoside transporter (hENT-1) activity: CEM cell viability with or without the hENT-1 inhibitor dipyridamole; conditions: for IC50: CEM cells, 72 hours
Procedure: 7.5×10^3 cells/well were plated in a 96 well plate in duplicate. Either compound 2 and Aza-T-dCyd were dosed at a 1:5 10-point serial dilution with a top dose of 5 μM in the presence of 5 μM Dipyridamole (DPD, Sigma Cat #: D9766 CAS 58-32-2), a hENT-1 inhibitor. Cells were cultured in the presence of compound for 72 hours. CellTiter Glo (G9241, Promega) was added to the media of each well and measured by a plate reader (Synergy 4, Biotek). The results were analyzed by GraphPad Prism 7 (GraphPad).

[2] = system: KG-1a cells; test: Cell viability assay (CellTiter Glo, 72 hours) in KG-1a cells; conditions: read-out: Cell Line IC50 (μM) KG-1a
Procedure: (§1) KG1a (CCL-246.1, ATCC) and CCRF-CEM (CCL-199, ATCC) cells were grown in RPMI-1640 media containing 10% FBS in T-75 flasks to a density of 1×10^6 cells per mL. Exponentially gown cells were used for the assay. Day 1: 7.5×10^3 cells were seeded in each well of 96 well plate. Day 2: Cells were treated with serial dilutions of each compound (starting 20 uM) or with DMSO as control for 72 hours. Day 5: CellTiter Glo (G9241, Promega) was added to the media of each well and measured by plate reader (Synergy 4, Biotek). Data analysis: Using GraphPad Prism 7 (GraphPad).

[3] = system: CEM cells; test: Deoxycytidine kinase (dCK) activity: CEM cell viability with or without 2'-deoxycytidine; conditions: for IC50: CEM cells, 72 hours
Procedure: 7.5×10^3 cells/well were plated in a 96 well plate in duplicate. […] Cells were cultured in the presence of compound for 72 hours. CellTiter Glo (G9241, Promega) was added to the media of each well and measured by a plate reader (Synergy 4, Biotek). The results were analyzed by GraphPad Prism 7 (GraphPad).

[4] = system: HCT-116 cells; test: Cytidine deaminase (CDA) activity: HCT-116 cell viability with or without the CDA inhibitor tetrahydrouridine; conditions: for IC50: HCT-116 cells, 72 hours
Procedure: […] cells/well were plated in a 96 well plate in duplicate. Tetrahydrouridine (THU), a Cytidine Deaminase inhibitor was dosed at 1:5 10-point serial dilution, with a top dose of 100 μM, as a control. […] Cells were cultured in the presence of compound for 72 hours and then assayed by cell titer glow for viability.

[5] = system: DNMT-1; test: Western blot analysis of DNMT-1 in CEM cells; conditions: DNMT-1 depletion in CEM cells, 96 hours
Procedure: Cells were treated with serial dilutions of each compound (starting 100 uM for HCT-116 and NCI-H23 cells, and 20 uM for KG-1a and CCRF-CEM cells) or with DMSO as control for 96 hours. Cell lysates were collected and proteins were separated with a SDS-PAGE gel, transferred to a nitrocellulose membrane, blocked in 5% non-fat milk in TBS-T, and probed with anti DNMT-1 (1:7000) rabbit polyclonal antibodies (cat #ab19905, Abcam) in 5% non-fat milk in TBS-T overnight. Membranes were washed three times with TBS-T. The anti-rabbit IgG (7074p2, Cell Signaling) secondary antibody was added at a concentration of 1:5000 in 5% non-fat milk in TBS-T for two hours in room temperature. Membranes were then washed three times with TBS-T, 5 minutes each time. Membranes were then incubated with SuperSignal West Pico Chemiluminescent Substrate (#34080 Thermo) and exposed onto film. Membranes were stripped with stripping buffer (#21059, Thermo) and re-probed with mouse anti tubulin 1:10,000 (T9026, Sigma) and anti-mouse IgG 1:5,000 (70′76p2, Cell Signaling).

[6] = system: CCRF-CEM cells; test: Cell viability assay (CellTiter Glo, 72 hours) in CEM cells; conditions: read-out: Cell Line IC50 (μM) CEM
Procedure: as §1

Molecule: 2-ethylbutyl ((S)-(((2R,3S,5R)-5-(4-amino-2-oxo-1,3,5-triazin-1(2H)-yl)-3-hydroxytetrahydrothiophen-2-yl)methoxy)(phenoxy)phosphoryl)-L-alaninate [Compound 3]
- IC50 ([1]; with 5 μM dipyridamole (hENT-1 inhibitor), read-out: CEM IC50 (μM) With DPD (5 μM)): 3.1 µM
- IC50 ([1]; without dipyridamole, read-out: CEM IC50 (μM) Without DPD): 0.35 µM
- reliance on hENT-1 to enter the cancer cells ([1]; conclusion in words from Table 3): does not significantly rely on hENT-1
- IC50 [2]: 1.5 µM
- IC50 ([3]; with 20 μM 2'-deoxycytidine (dCK inhibitor), read-out: CEM IC50 (μM) With dCyd (20 μM)): 6.5 µM
- IC50 ([3]; without 2'-deoxycytidine, read-out: CEM IC50 (μM) Without dCyd): 0.3 µM
- reliance on dCK activation compared to parent drug ([3]; conclusion in words from Table 5): does not rely on dCK activation
- IC50 ([4]; with 20 μM tetrahydrouridine (CDA inhibitor), read-out: HCT-116 IC50 (μM) With THU (20 μM)): 12 µM
- IC50 ([4]; without tetrahydrouridine, read-out: HCT-116 IC50 (μM) Without THU): 8 µM
- overcoming cytidine deaminase compared to parent drug ([4]; conclusion in words from Table 4): did overcome CAD
- IC50 [5]: 620 nM
- IC50 [6]: 0.16 µM

- IC50 ([4]; Homo sapiens, with 20 μM tetrahydrouridine (CDA inhibitor), read-out: HCT-116 IC50 (μM) With THU (20 μM)): 0.7 µM
- IC50 ([4]; Homo sapiens, without tetrahydrouridine, read-out: HCT-116 IC50 (μM) Without THU): 7 µM
- IC50 [5]: 380 nM
- IC50 ([6]; Homo sapiens, CCRF-CEM): 0.03 µM
Molecule: Nc1ncn([C@H]2C[C@H](O)[C@@H](CO)S2)c(=O)n1 [Aza-T-dCyd, 5-aza-4′-Thio-2′-deoxycytidine, reference compound]
- IC50 ([1]; Homo sapiens, CCRF-CEM, with 5 μM dipyridamole (hENT-1 inhibitor), read-out: CEM IC50 (μM) With DPD (5 μM)): > 3 µM
- IC50 ([1]; Homo sapiens, CCRF-CEM, without dipyridamole, read-out: CEM IC50 (μM) Without DPD): 0.03 µM
- IC50 ([2]; Homo sapiens): 0.03 µM
- IC50 ([3]; Homo sapiens, CCRF-CEM, with 20 μM 2'-deoxycytidine (dCK inhibitor), read-out: CEM IC50 (μM) With dCyd (20 μM)): 19 µM
- IC50 ([3]; Homo sapiens, CCRF-CEM, without 2'-deoxycytidine, read-out: CEM IC50 (μM) Without dCyd): 0.03 µM

— patent US20210363170A1, “4'-THIO-NUCLEOTIDE AND -NUCLEOSIDE PRODRUGS FOR THE TREATMENT OF CANCER” (Southern Research Institute, priority 2018, published 2021)
